Calls of active or inactive are those of the source. The rule behind the calls is not given here.
Assays:
Coxsackievirus = assay: Antiviral activity against CVB3; type: functional, organism-based; settings: B3
[1] = Prodrug activation assessed as carboxypeptidase Y (unknown origin) mediated metabolite formation at 3.3 ppm by P-NMR spectroscopy; type: ADME; settings: human
[2] = test system: Human immunodeficiency virus; assay: Antiviral activity against HIV; type: functional, organism-based
West Nile virus = assay: Antiviral activity against West Nile virus; type: functional, organism-based
Zika virus = assay: Antiviral activity against Zika virus; type: functional, organism-based
[3] = Prodrug activation assessed as carboxypeptidase Y (unknown origin) mediated cleavage of diastereoisomer measured after 120 mins by P-NMR spectroscopy; settings: human, 2 h
[4] = Prodrug activation in human HepG2 cell extract assessed as metabolite formation at 100 uM measured after 4 hrs by HPLC analysis; type: ADME, cell-based; settings: hepg2, 4 h
[5] = Prodrug activation assessed as carboxypeptidase Y (unknown origin) mediated cleavage of diastereoisomer measured after 5 mins by P-NMR spectroscopy; settings: human
[6] = Prodrug activation assessed as carboxypeptidase Y (unknown origin) mediated signal shift at 13.2 ppm by P-NMR spectroscopy; settings: human
[7] = Prodrug activation assessed as carboxypeptidase Y (unknown origin) mediated formation of metabolite from (2S)-2-((((2R,3R,4R,5R)-5-(6-amino-9H-purin-9-yl)-3,4-dihydroxy-4-methyltetrahydrofuran-2-yl)methylamino)(phenoxy)phosphorylamino)propanoic acid intermediate at 3.3 ppm by P-NMR spectroscopy; type: ADME; settings: human
[8] = Prodrug activation assessed as carboxypeptidase Y (unknown origin) mediated (2S)-2-((((2R,3R,4R,5R)-5-(6-amino-9H-purin-9-yl)-3,4-dihydroxy-4-methyltetrahydrofuran-2-yl)methylamino)(phenoxy)phosphorylamino)propanoic acid intermediate formation measured after 5 mins by P-NMR spectroscopy; settings: human
Dengue virus = assay: Antiviral activity against Dengue virus; type: functional, organism-based
[9] = test system: Tick-borne encephalitis virus; assay: Antiviral activity against TBEV; type: functional, organism-based
[10] = Prodrug activation assessed as carboxypeptidase Y (unknown origin) mediated signal shift at 13.5 ppm by P-NMR spectroscopy; settings: human
[11] = Prodrug activation assessed as carboxypeptidase Y (unknown origin) mediated cleavage at phenyl region resulting in formation of (2S)-2-[[hydroxy(phenoxy)phosphoryl]amino]propanoic acid measured after 120 mins by 13C-APT spectra analysis; settings: human, 2 h
[12] = Prodrug activation assessed as carboxypeptidase Y (unknown origin) mediated intermediate metabolite formation by P-NMR spectroscopy; type: ADME; settings: human
[13] = Prodrug activation assessed as carboxypeptidase Y (unknown origin) mediated metabolite formation at 3.1 ppm measured after 5 mins by P-NMR spectroscopy; type: ADME; settings: human
[14] = Prodrug activation assessed as carboxypeptidase Y (unknown origin) mediated cleavage at ribose sugar region resulting in formation of 2R,3R,4R,5S)-2-(6-aminopurin-9-yl)-3-methyl-5-(sulfanylmethyl)tetrahydrofuran-3,4-diol measured after 120 mins by 13C-APT spectra analysis; settings: human, 2 h

| SMILES | Activity (Coxsackievirus) | Drug metabolism [1] | Activity [2] | Activity (West Nile virus) | Activity (Zika virus) | Activity [3] | Drug metabolism [4] | Activity [5] | Activity [6] | Drug metabolism [7] | Drug metabolism [8] | Activity (Dengue virus) | Activity [9] | Activity [10] | Drug metabolism [11] | Drug metabolism [12] | Drug metabolism [13] | Drug metabolism [14] |
| --- | --- | --- | --- | --- | --- | --- | --- | --- | --- | --- | --- | --- | --- | --- | --- | --- | --- | --- |
| COC(=O)[C@H](C)NP(=O)(NC[C@H]1O[C@@H](n2cnc3c(N)ncnc32)[C@](C)(O)[C@@H]1O)Oc1ccccc1 (some centres not stated) | inactive | Metabolite_Detected | inactive | inactive | inactive | Not Active | Metabolite_Detected | Not Active | Active | Metabolite_Detected | Metabolite_Detected | inactive | inactive | Active | – | – | – | – |
| COC(=O)[C@H](C)NP(=O)(Oc1ccccc1)SC[C@H]1O[C@@H](n2cnc3c(N)ncnc32)[C@](C)(O)[C@@H]1O (some centres not stated) | inactive | – | inactive | inactive | inactive | Not Active | Metabolite_Detected | Active | – | – | – | inactive | inactive | – | Metabolite_Detected | Metabolite_Notdetected | Metabolite_Detected | Metabolite_Detected |
